# Laboratory results published in BindingDB's records for doi:10.1111/cbdd.12746 (Ahi Evran University, 2016).
# Biological target: Serum paraoxonase/arylesterase 1 (Homo sapiens, UniProt P27169)
# Assay: Paraoxonase Activity Assay
# Conditions: pH 10.5
# Description: Paraoxonase enzyme activity was determined at 25 °C with paraoxon (1 mM) in 50 mM glycine-NaOH (pH 10.5) containing 1 mM CaCl2. The enzyme assay was based on the estimation of p-nitrophenol at 412 nm. Assays were performed using a spectrophotometer (CHEBIOS UV-VIS, Fullerton, CA). The molar extinction coefficient of paranitrophenol (Ɛ = 18 290/M/cm at pH 10.5) is used for thecalculation of enzyme activity. One enzyme unit was defined as the amount of enzyme that catalyzes the hydrolysis of 1 µmol of paraoxon at 25 °C (J. Chromatogr. B. 2006, 836:15-21).
# Chain of Serum paraoxonase/arylesterase 1 (P27169 whole entry): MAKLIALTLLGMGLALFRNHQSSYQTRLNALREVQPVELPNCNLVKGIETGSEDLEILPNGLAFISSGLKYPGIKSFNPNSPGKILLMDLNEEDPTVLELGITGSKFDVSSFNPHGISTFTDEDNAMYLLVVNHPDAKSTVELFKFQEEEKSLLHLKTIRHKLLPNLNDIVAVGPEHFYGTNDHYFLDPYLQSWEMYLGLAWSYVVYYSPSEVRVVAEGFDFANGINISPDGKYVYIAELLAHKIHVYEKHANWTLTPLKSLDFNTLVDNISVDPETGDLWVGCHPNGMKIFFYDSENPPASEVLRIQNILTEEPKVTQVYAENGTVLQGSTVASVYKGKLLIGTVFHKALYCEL
Structure (SMILES),IC50 [µM],Ki [µM]
CC(=O)O[C@H]1C(=O)[C@@]2(C)[C@H]([C@H](OC(=O)c3ccccc3)[C@]3(O)C[C@H](OC(=O)[C@H](O)[C@@H](NC(=O)c4ccccc4)c4ccccc4)C(C)=C1C3(C)C)[C@]1(OC(C)=O)CO[C@@H]1C[C@@H]2O,42,16.5
"COc1cc([C@@H]2c3cc4c(cc3[C@@H](O[C@@H]3O[C@@H]5CO[C@@H](C)O[C@H]5[C@H](O)[C@H]3O)[C@H]3COC(=O)[C@H]23)OCO4)cc(OC)c1O [4'-Demethylepipodophyllotoxin 9-(4,6-O-(R)-ethylidene-beta-D-glucopyranoside)]",226,131
CC(=O)O[C@@]12CO[C@@H]1C[C@H](O)[C@@]1(C)C(=O)[C@H](O)C3=C(C)[C@@H](OC(=O)[C@H](O)[C@@H](NC(=O)OC(C)(C)C)c4ccccc4)C[C@@](O)([C@@H](OC(=O)c4ccccc4)[C@H]21)C3(C)C [CID148124],665,291
"O=P1(NCCCl)OCCCN1CCCl (stereo not drawn) [N,3-bis(2-chloroethyl)-2-oxo-1,3,2-oxazaphosphinan-2-amine]",23300,8970
